Reference: patent US20050004105A1, “Treatment for a attention-deficit hyperactivity disorder” (priority 2003, published 2005)
“Also recorded” adds a separate entry of the source.

How the values were obtained:
mice (C57BL/6J; C3H) = assay: Peak procedure (peak interval procedure, PIP); format: in vivo; conditions: for effect on performance (relative response rate curve) in PIP 30 s task: C57BL/6J mice, vs saline; for effect on performance curves in PIP 30 s and PIP 45 s: C3H mice, vs vehicle
Procedure: The peak procedure is a behavioral model designed to assess an animal's ability to learn an appropriate time period in which to perform a task and a time period in which the animal will be rewarded if the task is performed. The model provides information concerning excitatory and inhibitory components of behavior, as subjects must respond to perform a task when appropriate and stop responding in an “empty trial” when time for reward has elapsed and the reward has not been delivered. The task is sensitive to conditions where there is a failure in inhibitory mechanisms, such as seems to be the case for ADHD (Pliszka et al., Biol. Psychiatry, 48:238-46, 2000).
In the peak procedure, mice are trained to work for food that is delivered at the same time in each trial, but withdrawn in some unreinforced trials. Typically, the response rate increases up to a maximum around the reinforcement time, and then decreases to a low toward the end of the trial. The shape of the response rate indicates whether the animal is sensitive to the time of reinforcement. To be able to perform well in this model, the animals need to be able to learn several tasks. First, the animal must make an association between a response (lever pressing, nose poking or key pecking) and the delivery of reward. Second, the animal must be able to perceive and remember time. Third, the animal must act on its remembered time by starting and then stopping or inhibiting the response. Fourth, the animal must be able to compare the elapsed time in the trials with its remembered time to reinforcement. In each trial the time clock is reset, and the animal must reset its internal “counter,” i.e., at the beginning of each trial animals should start “timing” the trial time from zero. The ability to perform this task depends on the animal's working memory. Starting the internal clock at the beginning of the trial requires that the animal pays attention to the trial start time, which could be in the form of a visual signal, or as reported herein, the introduction of a lever into the experimental chamber. […] Accuracy is measured by looking at the shape of the response function; therefore, if the response function is sharper and centered on the reinforcement time it supports a conclusion that attentional processes have been heightened.
All mice were food deprived to a target weight of 85-90% of their free-feeding weight before training began. Mice were fed approximately 10% of their body weight until they reached their target weight. On average, 1 week of food deprivation was sufficient to reach the target weight. During this time, all subjects were fed Bioserve 500 mg precision dustless pellets as their daily ration. They were exposed to Carnation™ evaporated milk in the home cage to avoid a possible neophobic reaction to the reinforcement. Subjects were given 1-week “vacations” every 4 to 6 weeks at which time they were allowed free access to food and a new free-feeding body weight baseline was recorded. Water was continuously available in the cage.
Once deprived, animals were trained to lever-press in an operant chamber using ultrasensitive levers. Sixteen mouse operant chambers (Med Associates, Georgia, Vt.) were configured identically with two retractable ultra-sensitive levers, stimulus lights, and a dipper for delivery of condensed milk. A house light was placed on the opposite wall from the levers. Each chamber was placed in isolation cubicle. A fan provided white masking noise and adequate air.
Training and testing consisted of 1-h daily sessions. Subjects started on a concurrent fixed ratio 1-fixed time 1 min (FR 1-FT 1) schedule of reinforcement in which the house light served as the discriminative stimulus. Food was delivered every 1 min but the delivery was immediate if the animal made a response. […] After no more than 1 week on this schedule, mice began training with a fixed-interval (FI) 10 s schedule in which all trials were separated by a 20 s, intertrial interval. […]

[1] = system: coloboma mutant (Cm) mice; assay: Open-field locomotor activity, coloboma mutant mice; format: in vivo
Description: (§1) Heterozygote coloboma mice were originally purchased from The Jackson Laboratory (Bar Harbor, Me.) and were bred and maintained in our colony. In the current study, mutant mice and wild-type littermates, all aged 8 to 10 weeks, were used. Animals were divided into 4 groups: mutant/drug-treatment, mutant/vehicle-control, wild-type/drug-treatment, wild-type/vehicle-control (n=4-13 per group). Age and gender were balanced among groups. All animals were housed as littermates (2-4 mice per cage) and were maintained on ad libitum food and water with a 12 hr light/dark cycle.
(§2) The Open-field (OF) test was performed under normal lighting conditions (400 lux). Mice (Cm/+, WT) were brought into the experimental room and allowed at least 1 hr of acclimation. […] Each mouse was then placed into an OF arena (27×27×20 cm) with an infrared beam array system (Med Associates, St. Albans, Vt.) that automatically monitored the animal's activity. Four animals of matching genotype and treatment were tested at one time. The test session lasted 40 min and animals were returned to the home cage at the end of the session. Test measures included locomotion (distance traveled in cm) and number of center entries (zone crossings).

wild-type mice = assay: Open-field locomotor activity, wild-type mice; format: in vivo
Description: as §1, §2

Cm mutant mice = Cm mutant mice (methylphenidate: both control and Cm mutants); Hess et al., 1996; cited from earlier work
5-HT1A receptors [2] = biological target: T1, 5-HT1A receptors (Homo sapiens, UniProt P08908); assay: 5-HT1A receptor affinity (Schipper et al., 1991); format: binding; conditions: based on Ki values of Schipper et al.
T1 sequence (P08908 1-422): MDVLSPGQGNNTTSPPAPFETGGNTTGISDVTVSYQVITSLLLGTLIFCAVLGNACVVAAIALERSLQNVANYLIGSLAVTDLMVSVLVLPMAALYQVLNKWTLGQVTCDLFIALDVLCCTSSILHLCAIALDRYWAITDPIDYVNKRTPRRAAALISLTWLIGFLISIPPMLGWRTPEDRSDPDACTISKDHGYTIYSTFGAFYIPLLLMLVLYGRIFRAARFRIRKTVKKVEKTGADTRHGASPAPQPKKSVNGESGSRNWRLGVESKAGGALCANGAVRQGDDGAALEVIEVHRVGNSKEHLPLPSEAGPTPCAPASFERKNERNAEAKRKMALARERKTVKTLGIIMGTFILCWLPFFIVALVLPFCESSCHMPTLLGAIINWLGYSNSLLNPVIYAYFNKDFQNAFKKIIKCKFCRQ

α1 adrenergic receptors = conditions: Schipper et al., 1991; cited from earlier work
5-HT1D receptors = conditions: Schipper et al., 1991; cited from earlier work
[3] = biological target: other neurotransmitter receptors; conditions: Schipper et al., 1991; cited from earlier work
5-HT1A receptors [4] = biological target: T1, 5-HT1A receptors; conditions: proportion of maximal inhibition of forskolin-stimulated cAMP relative to 5-HT; Koek et al., 1998; cited from earlier work
5-HT1A receptors [5] = biological target: T1, 5-HT1A receptors; assay: 5-HT1A receptor affinity (Koek et al., 1998); format: binding; conditions: from pKi values of Koek et al.
5-HT1A receptors [6] = biological target: T1, 5-HT1A receptors; conditions: Koek et al., 1998; cited from earlier work
D2 receptors = D2 receptors (Homo sapiens, UniProt P14416); conditions: Koek et al., 1998; cited from earlier work
Chain of D2 receptors (P14416 whole entry): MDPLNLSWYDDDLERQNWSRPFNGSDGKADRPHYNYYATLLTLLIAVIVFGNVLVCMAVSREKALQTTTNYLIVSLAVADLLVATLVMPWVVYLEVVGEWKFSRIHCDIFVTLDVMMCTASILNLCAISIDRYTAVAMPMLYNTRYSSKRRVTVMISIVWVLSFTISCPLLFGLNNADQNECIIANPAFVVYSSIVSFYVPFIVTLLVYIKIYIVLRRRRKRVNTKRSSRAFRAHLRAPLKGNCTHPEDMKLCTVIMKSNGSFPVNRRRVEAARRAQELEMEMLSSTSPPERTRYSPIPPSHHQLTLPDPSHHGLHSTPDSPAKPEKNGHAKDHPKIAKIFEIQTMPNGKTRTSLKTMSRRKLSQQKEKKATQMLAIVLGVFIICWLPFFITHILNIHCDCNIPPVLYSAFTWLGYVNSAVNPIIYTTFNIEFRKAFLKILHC

## CC(N)Cc1ccccc1 (centres unmarked) [amphetamine]
Mice (C57BL/6J; C3H); 1 mg/kg
  effect on performance (relative response rate curve) in PIP 30 s task: positive effects
Mice (C57BL/6J; C3H); 2 mg/kg
  effect on performance (relative response rate curve) in PIP 30 s task: positive effects
Mice (C57BL/6J; C3H); 4 mg/kg
  effect on performance (relative response rate curve) in PIP 30 s task: disrupted performance
[1]; Cm mutant mice, 4 mg/kg i.p. 30 min before 40 min open-field session, saline 18386±6387
  total distance traveled: 5966±1938 cm
wild-type mice; 4 mg/kg i.p. 30 min before 40 min open-field session, saline 3116±338
  total distance traveled: 11657±2370 centimeters
Cm mutant mice
  effect on hyperactivity / locomotor activity: normalizes the hyperactivity

## COC(=O)C(c1ccccc1)C1CCCCN1 (centres unmarked) [methylphenidate]
Cm mutant mice
  effect on hyperactivity / locomotor activity: increases locomotor activity in a dose-dependent manner

## O=C1CC2(CCCC2)CC(=O)N1CCCCN1CCN(c2ncccn2)CC1 [buspirone]
5-HT1A receptors [2]
  ΔpKi for 5-HT1A and D2 receptors: 0.44

## CCCN(CCC)C1CCc2cccc(O)c2C1 (centres unmarked) [8-OH-DPAT, 8-hydroxy-2(di-n-propylamino)tetralin]
5-HT1A receptors [2]
  ΔpKi for 5-HT1A and D2 receptors: 2.94
Mice (C57BL/6J; C3H); 0.01 mg/kg, 0.01 mg/kg
  effect on performance curves in PIP 30 s and PIP 45 s: not significantly different from the saline curve; also recorded: slightly disruptive
Mice (C57BL/6J; C3H); 0.1 mg/kg
  effect on performance curves in PIP 30 s and PIP 45 s: not significantly different from the saline curve
[1]; Cm mice, 0.1 mg/kg
  attenuation of total ambulatory distance compared to vehicle: ~50%
[1]; Cm mice, 0.1 mg/kg, p=0.030
  total frequency of zone crossings: significantly decreased
[1]; Cm mice, 0.1 mg/kg, vehicle 14702±2611, not statistically significant
  total ambulatory distance: 7813±2606 centimeters
[1]; Cm mice, lower doses 0.001 or 0.01 mg/kg, data not shown
  attenuation of Cm hyperactivity: no significant attenuation
wild-type mice; 0.1 mg/kg, vehicle 7720±2726, non-significant
  total ambulatory distance: 4517±1599 centimeters
α1 adrenergic receptors
  Ki: 380 nM
5-HT1D receptors
  Ki: 930 nM
[3]
  Ki: > 1000 nM

## CCCN(CCC)C1Cc2c[nH]c3ccc(C(N)=O)c(c23)C1 (single isomer, unassigned; (-)) [LY228729, (−)-4(dipropylamino)-1,3,4,5-tetrahydrobenz-[c,d,]indole-6-carboxamide]
5-HT1A receptors [4]
  intrinsic activity at the 5-HT1A receptor: 0.88

## Cn1c(=O)cnn(CCCCN2CCN(c3ncccn3)CC2)c1=O [F11440, 4-methyl-2-(4-[4-(pyrimidin-2-yl)-piperazino]-butyl)-2H,4H-1,2,4-triazin-3,5-dione]
5-HT1A receptors [5]
  ΔpKi for 5-HT1A and D2 receptors: 2.58
5-HT1A receptors [6]
  pKi for 5-HT1A receptors: 8.33
D2 receptors
  pKi for D2 receptors: 5.75
5-HT1A receptors [4]
  intrinsic activity at the 5-HT1A receptor: 1.0

## COc1ccc2cccc(N3CCN(CCNC(=O)c4ccc(F)cc4)CC3)c2c1 [S14506, 1(2-[4-fluorobenzoylamino]ethyl)-4-(7-methoxynaphtyl)piperazine]
5-HT1A receptors [4]
  intrinsic activity at the 5-HT1A receptor: 0.95

## CC1(C)CC(=O)N(CCCCN2CCN(c3ncccn3)CC2)C(=O)C1 [gepirone]
5-HT1A receptors [4]
  intrinsic activity at the 5-HT1A receptor: 0.77
